{"source": "patent US10358469B2", "about": "“Methods and pharmaceutical compositions for the treatment of cancer” (INSERM (INSTITUT NATIONAL DE LA SANTÉ ET DE LA RECHERCHE …, priority 2014, dated 2019)", "key": {"A549 cells": {"system": "A549 cells", "assay": "Cell viability (MTT) of A549 cells under low serum / serum deprivation", "format": "cell-based", "settings": "for cytotoxicity (decrease of A549 viability) relative to comparison peptide, dose-response: various concentrations, low-serum conditions, FIG. 2A / 5A; for cellular viability: 2 µM", "method": "(A) Karpas 1106, SU-DHL-5, SeAx and HUT-78 cells were plated at a densities of 6×10^3 in 96 well plates (100 μL total volume per well) and treated for 24 hours in a 37° C. incubator (5% CO2) with increasing concentrations of the Antp-AAC-11-LZ (363-399). 20 μL MTS reagent was then added to each well and plates were incubated for an additional 4 hours. Absorbance was measured at 490 nm using a 96-well plate reader. The extent to which the Antp-AAC-11-LZ (363-399) peptide inhibited cell proliferation was calculated as a percentage of the absorbance in each well containing the Antp-AAC-11-LZ (363-399) peptide relative to wells containing no peptide (negative control). Each bar represents the mean±s.d. from at least three independent experiments. (B) Indicated cells were plated at a densities of 4.5×10^3 in 96 well plates (100 μL total volume per well) and allowed to attach overnight in a 37° C. incubator (5% CO2). Media was removed from cells and replaced with media containing Antp-AAC-11-LZ (363-399) peptide at various concentrations (100 μL total volume per well) peptide and the plates were incubated for 24 hours. The MTT assay was then completed and data analysis was performed as described herein. […] A549 cells were plated at a densities of 4.5×10^3 in 96 well plates (100 μL total volume per well) and allowed to attach overnight in a 37° C. incubator (5% CO2). Media was removed from cells and replaced with media containing the indicated peptides at 10 μM (100 μL total volume per well) and the plates were incubated for 24 hours. The MTT assay was then completed and data analysis was performed as described herein.\n(A) A549 cells were plated at a densities of 4.5×10^3 in 96 well plates (100 μL total volume per well) and allowed to attach overnight in a 37° C. incubator (5% CO2). Media was removed from cells and replaced with media containing the indicated peptides at various concentrations (100 μL total volume per well) peptide in the absence of serum and the plates were incubated for 24 hours. The MTT assay was then completed and data analysis was performed as described herein. (B) A549 or HaCat cells were plated at a densities of 4.5×10^3 in 96 well plates (100 μL total volume per well) and allowed to attach overnight in a 37° C. incubator (5% CO2). Media was removed from cells and replaced with media containing the indicated peptides at 10 μM (100 μL total volume per well) peptide in the absence of serum and the plates were incubated for 24 hours. The MTT assay was then completed and data analysis was performed as described herein.\nA549 cells were plated at a densities of 4.5×10^3 in 96 well plates (100 μL total volume per well) and allowed to attach overnight in a 37° C. incubator (5% CO2). Cells were left untreated or pre-treated with 100 μM Z-VAD-FMK for 2 h. […] The MTT assay was then completed and data analysis was performed as described herein.\n(A) A549 cells were plated at a densities of 4.5×10^3 in 96 well plates (100 μL total volume per well) and allowed to attach overnight in a 37° C. incubator (5% CO2). Media was removed from cells and replaced with media containing the indicated Antp-AAC-11-LZ peptides at various concentrations (100 μL total volume per well) peptide and the plates were incubated for 24 hours. The MTT assay was then completed and data analysis was performed as described herein. (B) A549 or HaCat cells were plated at a densities of 4.5×10^3 in 96 well plates (100 μL total volume per well) and allowed to attach overnight in a 37° C. incubator (5% CO2). Media was removed from cells and replaced with media containing the indicated peptides at 10 μM (100 μL total volume per well) peptide in the absence of serum and the plates were incubated for 24 hours. The MTT assay was then completed and data analysis was performed as described herein."}, "D3H2LN cells": {"system": "D3H2LN cells", "assay": "Proliferation of D3H2LN cells (not showed)", "format": "cell-based"}, "HaCat cells": {"system": "HaCat cells", "assay": "Cell viability (MTT) of nonmalignant HaCat cells in the absence of serum", "format": "cell-based", "settings": "10 μM, 24 hours, FIG. 2B / 5B", "method": "FIG. 2: TAT-AAC-11-LZ (363-399), RI-TAT-AAC-11-LZ (363-399) and Cter-Antp-AAC-11-LZ (363-399) peptides preferentially kill tumor cells. (A) A549 cells were plated at a densities of 4.5×10^3 in 96 well plates (100 μL total volume per well) and allowed to attach overnight in a 37° C. incubator (5% CO2). Media was removed from cells and replaced with media containing the indicated peptides at various concentrations (100 μL total volume per well) peptide in the absence of serum and the plates were incubated for 24 hours. The MTT assay was then completed and data analysis was performed as described herein. (B) A549 or HaCat cells were plated at a densities of 4.5×10^3 in 96 well plates (100 μL total volume per well) and allowed to attach overnight in a 37° C. incubator (5% CO2). Media was removed from cells and replaced with media containing the indicated peptides at 10 μM (100 μL total volume per well) peptide in the absence of serum and the plates were incubated for 24 hours. […]\nViability of cells cultured in the 96-well culture plates was assessed by measuring mitochondrial dehydrogenase activity, using the colorimetric CellTiter 96® AQueous One Solution Cell Proliferation Assay (Promega), according to the manufacturer′ instructions. […] The color can then be quantified using a simple colorimetric assay. The results are read on a multiwall scanning spectrophotometer (ELISA reader)."}, "[1]": {"system": "leukemic cells isolated from hMRP8-PML/RARα transgenic mice", "assay": "Acute promyelocytic leukemia (APL) mouse model, survival", "format": "in vivo", "method": "FIG. 9: Antp-AAC-11-LZ (363-399) peptide treatment of leukemic mice protects against disease progression. Mice were challenged with 10^4 leukemic cells isolated from hMRP8-PML/RARα transgenic mice, allowed to engraft for 10 d, and were then injected intraperitonaly each day for 7 consecutive days with Antp-AAC-11-LZ (363-399) peptide (1.8 mg/kg) or vehicle (normal saline solution), or subcutaneously implanted with a 21-d release pellet containing 5 mg ATRA (n=6 for each treatment). Mice were monitored for survival.\nWe use an established in vivo APL model based on syngenic grafts of leukemic blasts from hMRP8-PML/RARα transgenic mice, as described by Brown et al. (Brown et al., 1997). This model mimics human APL, both in its biological characteristics and its response to conventional therapeutic drugs such as all-trans retinoic acid (ATRA) and 100% of the mice die of the disease (Brown et al., 1997; Kogan et al., 2000; Lallemand-Breitenbach et al., 1999). […] leukemic cells isolated from bone marrow, spleen, or lymph nodes of leukemic hMRP8-PML/RARα transgenic mice (Brown et al., 1997) were injected into the tail vein of 6-7 week old syngeneic FVB/N mice. Establishment of leukemia was assessed by the appearance of high leukocyte and low platelet counts at around day 8 (Brown et al., 1997). Ten days after transplantation, mice implanted with leukemic cells were randomly assigned to either type of treatment (n=6). Antp-AAC-11-LZ (363-399) peptide (1.8 mg/kg) or vehicle (normal saline solution) was injected intraperitonaly each day for 7 consecutive days. Retinoic acid was administrated by subcutaneous implantation of a 21-d release pellet containing 5 mg ATRA (Innovative Research of America). Mice were then monitored for survival."}}, "note": "“Also recorded” adds a separate entry of the source. Non-standard residues stand in square brackets, D forms with d."}
{"molecule": "Ac-RQIKIWFKKQNRRMKWKKFARGLQVYIRQLRLALQGKT-NH2 [Antp-AAC-11-LZ (380-399)]", "values": [{"measurement": "cytotoxicity (decrease of A549 viability) relative to comparison peptide, dose-response", "setting": "A549 cells; 24 hours", "value": "substantial but weaker cell death than the Antp-AAC-11-LZ (363-399) peptide"}]}
{"molecule": "Antp-AAC-11-LZ (363-399) L/G: RQIKIWFKKQNRRMKWKKAKLNAEKLKDFKIRGQYFARGGQVYIRQGRLALQGKT (SEQ ID NO: 5), leucines 377, 384 and 391 mutated to glycines (Ac-RQIKIWFKKQNRRMKWKKAKLNAEKLKDFKIRGQYFARGGQVYIRQGRLALQGKT-NH2)", "values": [{"measurement": "induction of cell death of A549 cells", "setting": "A549 cells; 10 μM, serum deprivation, 24 hours, FIG. 1C", "value": "neither the Penetratin peptide alone, the AAC-11-LZ (363-399) peptide without the Penetratin linkage nor the mutant peptide Antp-AAC-11-LZ (363-399) L/G did induce cell death"}]}
{"molecule": "Ac-RQIKIWFKKQNRRMKWKKKDFKIRLQYFARGLQVYIRQLRLALQG-NH2 [Antp-AAC-11-LZ (371-397)]", "values": [{"measurement": "cytotoxicity (decrease of A549 viability) relative to comparison peptide, dose-response", "setting": "A549 cells; 24 hours", "value": "reduced cytotoxicity compared with the Antp-AAC-11-LZ (371-399) peptide; also recorded: significantly higher cell death compared with the Antp-AAC-11-LZ (363-399) parent peptide"}]}
{"molecule": "Ac-YGRKKRRQRRRGGGAKLNAEKLKDFKIRLQYFARGLQVYIRQLRLALQGKT-NH2 [TAT-AAC-11-LZ (363-399)]", "values": [{"measurement": "proliferation at the concentrations used for migration", "setting": "D3H2LN cells", "value": "neither the Antp-AAC-11-LZ (363-399) or TAT-AAC-11-LZ (363-399) peptides impaired proliferation"}, {"measurement": "cytotoxicity in nonmalignant cells", "setting": "HaCat cells", "value": "largely more resistant"}, {"measurement": "cytotoxicity (decrease of A549 viability) relative to comparison peptide, dose-response", "setting": "A549 cells; 24 hours", "value": "at least as effective as compared to the Antp-AAC-11-LZ (363-399) peptide"}]}
{"molecule": "Ac-[dR][dR][dR][dQ][dR][dR][dK][dK][dR]G[dY]G[dT][dK]G[dQ][dL][dA][dL][dR][dL][dQ][dR][dI][dY][dV][dQ][dL]G[dR][dA][dF][dY][dQ][dL][dR][dI][dK][dF][dD][dK][dL][dK][dE][dA][dN][dL][dK][dA]-NH2 [RI-TAT-AAC-11-LZ (363-399)]", "values": [{"measurement": "cytotoxicity in nonmalignant cells", "setting": "HaCat cells", "value": "very little cytotoxicity"}, {"measurement": "cytotoxicity (decrease of A549 viability) relative to comparison peptide, dose-response", "setting": "A549 cells; 24 hours", "value": "more effective than the TAT-AAC-11-LZ (363-399) peptide"}]}
{"molecule": "Ac-RQIKIWFKKQNRRMKWKKKDFKIRLQYFARGLQVYIRQL-NH2 [Antp-AAC-11-LZ (371-391)]", "values": [{"measurement": "cytotoxicity (decrease of A549 viability) relative to comparison peptide, dose-response", "setting": "A549 cells; 24 hours", "value": "reduced cytotoxicity compared with the Antp-AAC-11-LZ (371-399) peptide; also recorded: significantly higher cell death compared with the Antp-AAC-11-LZ (363-399) parent peptide"}]}
{"molecule": "Ac-RQIKIWFKKQNRRMKWKKLQYFARGLLRLALQGKT-NH2 [Antp-AAC-11-LZ (377-399 4385-390)]", "values": [{"measurement": "cellular viability", "setting": "A549 cells", "value": "3 % of control"}, {"measurement": "cytotoxicity (decrease of A549 viability) relative to comparison peptide, dose-response", "setting": "A549 cells; 24 hours", "value": "highest activity"}]}
{"molecule": "CC1=C(/C=C/C(C)=C/C=C/C(C)=C/C(=O)O)C(C)(C)CCC1", "note": "[ATRA, all-trans retinoic acid, reference compound]", "values": [{"measurement": "mice surviving up to 67 d", "setting": "[1]; n=6 per treatment", "value": "one mouse"}, {"measurement": "mean survival time", "setting": "[1]; peptide 1.8 mg/kg i.p. daily for 7 days, ATRA 5 mg 21-d release pellet s.c., from day 10 after graft, n=6", "value": 56, "unit": "days"}]}
{"molecule": "Ac-RQIKIWFKKQNRRMKWKKKDFKIRLQYFARGLQVYIRQLRLALQGKT-NH2 [Antp-AAC-11-LZ (371-399)]", "values": [{"measurement": "cellular viability", "setting": "A549 cells", "value": "33.2 % of control"}, {"measurement": "cytotoxicity (decrease of A549 viability) relative to comparison peptide, dose-response", "setting": "A549 cells; 24 hours", "value": "markedly increased cytotoxicity potency compared to the parent peptide"}]}
